Data as given in publication PMC10820264, “Combining Experimental and Computational Methods to Produce Conjugates of Anticholinesterase and Antioxidant Pharmacophores with Linker Chemistries Affecting Biological Activities Related to Treatment of Alzheimer’s Disease” (Molecules, 2024).
Values joined by “and” are separate entries in the source; they are usually repeats but may differ in a detail not shown here. Identical values can stand only once. Like-named read-outs stand apart in the source and are kept apart here. Marks after values point to notes of the source that are not given here.

Columns and labels:
[1] = target: peripheral anionic site of Electrophorus electricus AChE (EeAChE) (Electrophorus electricus, UniProt O42275); format: binding;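 note: compounds tested at 20 µM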
Sequence of peripheral anionic site of Electrophorus electricus AChE (EeAChE) (O42275 24-633): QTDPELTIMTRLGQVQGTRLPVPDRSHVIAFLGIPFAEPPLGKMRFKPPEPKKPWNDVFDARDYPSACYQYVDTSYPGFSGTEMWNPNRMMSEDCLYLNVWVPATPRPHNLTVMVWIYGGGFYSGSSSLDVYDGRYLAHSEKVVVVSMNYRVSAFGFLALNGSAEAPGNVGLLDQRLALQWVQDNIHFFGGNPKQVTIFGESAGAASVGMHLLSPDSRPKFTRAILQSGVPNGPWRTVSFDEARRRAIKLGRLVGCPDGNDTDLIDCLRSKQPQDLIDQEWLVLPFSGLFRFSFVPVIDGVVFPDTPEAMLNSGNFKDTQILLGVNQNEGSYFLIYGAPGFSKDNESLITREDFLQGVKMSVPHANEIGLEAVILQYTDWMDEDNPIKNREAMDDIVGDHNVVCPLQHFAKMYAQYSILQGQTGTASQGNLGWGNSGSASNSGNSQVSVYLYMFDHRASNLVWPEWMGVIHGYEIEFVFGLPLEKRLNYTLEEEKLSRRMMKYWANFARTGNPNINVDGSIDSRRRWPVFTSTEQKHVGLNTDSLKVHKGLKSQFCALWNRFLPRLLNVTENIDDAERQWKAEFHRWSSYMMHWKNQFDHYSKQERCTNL

[2] = ABTS radical cation scavenging assay; conditions: for ABTS•+-Scavenging Activity TEAC: Trolox equivalents; for time to reach the activity level of Trolox in ABTS radical scavenging: compound at 20 μM (IC50 of Trolox)
Porcine liver CES = test: CES inhibition, spectrophotometric, 4-NPA substrate; format: biochemical
Protocol: (§1) Human erythrocyte AChE and equine serum BChE were purchased from Milamed (Perm, Russia). Porcine liver CES, substrates, and reference compounds were from Sigma-Aldrich (St. Louis, MO, USA). The activity of enzymes was measured spectrophotometrically, as described in detail in [72] using ATCh iodide, BTCh iodide, and 4-NPA as substrates for AChE, BChE, and CES, respectively. Experimental conditions: K,Na—phosphate buffer (100 mM), 25 °C, pH 7.5 for AChE and BChE and pH 8.0 for CES assay. Measurements were carried out on a FLUOStar Optima microplate reader (BMG Labtech, Ortenberg, Germany).
Test compounds were dissolved in DMSO; the final concentration of solvent in the incubation mixture was 2% (v/v). […]

[3] = Ferric-reducing antioxidant power (FRAP) assay; conditions: Trolox equivalents
Human erythrocyte AChE = Human erythrocyte AChE (Homo sapiens, UniProt P22303); test: biochemical; format: biochemical
Sequence of Human erythrocyte AChE (P22303 other isoform, or with tags, fused parts or gaps): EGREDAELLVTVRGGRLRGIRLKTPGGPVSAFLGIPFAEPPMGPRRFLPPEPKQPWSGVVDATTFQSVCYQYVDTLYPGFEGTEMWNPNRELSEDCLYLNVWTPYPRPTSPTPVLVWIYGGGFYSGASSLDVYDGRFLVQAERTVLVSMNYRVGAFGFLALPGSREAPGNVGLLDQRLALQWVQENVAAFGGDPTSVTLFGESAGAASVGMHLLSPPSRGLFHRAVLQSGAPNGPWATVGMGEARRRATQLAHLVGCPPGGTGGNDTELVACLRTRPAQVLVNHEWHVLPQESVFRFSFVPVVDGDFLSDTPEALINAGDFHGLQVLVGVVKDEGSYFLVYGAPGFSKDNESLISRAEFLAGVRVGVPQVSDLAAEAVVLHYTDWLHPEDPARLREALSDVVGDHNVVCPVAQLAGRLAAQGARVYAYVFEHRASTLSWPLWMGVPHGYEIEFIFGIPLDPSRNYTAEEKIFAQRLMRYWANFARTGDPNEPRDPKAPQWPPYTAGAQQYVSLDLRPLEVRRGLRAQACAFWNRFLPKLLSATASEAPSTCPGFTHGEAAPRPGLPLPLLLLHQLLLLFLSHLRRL
Protocol: as §1
(§2) Test compounds were dissolved in DMSO; the final concentration of solvent in the incubation mixture was 2% (v/v).

equine serum BChE = equine serum BChE (Equus caballus, UniProt P81908); test: biochemical; format: biochemical
Sequence of equine serum BChE (P81908 whole entry): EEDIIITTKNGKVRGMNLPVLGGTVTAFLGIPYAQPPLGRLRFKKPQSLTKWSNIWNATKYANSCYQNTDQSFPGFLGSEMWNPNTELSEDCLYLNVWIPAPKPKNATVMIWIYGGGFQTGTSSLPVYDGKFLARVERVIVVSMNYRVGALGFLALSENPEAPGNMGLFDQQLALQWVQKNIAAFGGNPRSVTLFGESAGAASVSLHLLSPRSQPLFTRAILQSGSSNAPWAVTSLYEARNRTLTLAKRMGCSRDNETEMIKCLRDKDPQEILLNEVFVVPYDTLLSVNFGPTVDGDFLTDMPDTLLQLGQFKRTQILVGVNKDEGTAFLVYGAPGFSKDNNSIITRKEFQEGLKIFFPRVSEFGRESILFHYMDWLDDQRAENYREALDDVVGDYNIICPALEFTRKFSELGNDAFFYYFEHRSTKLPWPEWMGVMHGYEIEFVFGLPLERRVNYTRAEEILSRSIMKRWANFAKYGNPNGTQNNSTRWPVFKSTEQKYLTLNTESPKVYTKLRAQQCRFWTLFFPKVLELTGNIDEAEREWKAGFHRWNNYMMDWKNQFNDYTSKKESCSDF
Protocol: as §1, §2

Aβ42 = Aβ42 (Homo sapiens, UniProt P05067); test: Inhibition of Aβ42 self-aggregation, thioflavin T fluorescence; format: biochemical; conditions: for inhibition at 100 µM: read-out: Inhibition of Aβ42 Self-Aggregation
Sequence of Aβ42 (P05067 672-713): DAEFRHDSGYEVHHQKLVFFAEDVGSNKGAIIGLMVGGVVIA

| Molecule | Propidium Displacement [1] | IC50 [2] | ABTS•+-Scavenging Activity TEAC [2] | CES % inhibition at 20 μM (Porcine liver CES) | Ferric-Reducing Antioxidant Power TE [3] | IC50 (Human erythrocyte AChE) [nM] | IC50 (equine serum BChE) [nM] | Inhibition of Aβ42 Self-Aggregation (Aβ42; Aβ42 50 µM, compound 100 µM) | inhibition at 100 µM (Aβ42; Aβ42 50 µM, compound 100 µM) [%] | inhibition at 100 µM (Aβ42) [%] | time to reach the activity level of Trolox in ABTS radical scavenging [2] |
| --- | --- | --- | --- | --- | --- | --- | --- | --- | --- | --- | --- |
| CC(C)(C)c1cc(CNCCCCNc2c3c(nc4ccccc24)CCC3)cc(C(C)(C)C)c1O [16b, 2,6-Di-tert-butyl-4-{[4-(2,3-dihydro-1H-cyclopenta[b]quinolin-9-ylamino)-butylamino]-methyl}-phenol] | 17.5 ± 1.5 *^,§ % | 23600 ± 1300 nM | 0.90 ± 0.04 | 17.2 ± 3.3% | 0.44 ± 0.02 | 912 ± 16 | 177 ± 17 | – | – | – | – |
| Propidium iodide [reference compound] | – | – | – | – | – | – | – | 89.3 ± 7.1 ^b % | – | – | – |
| CC(C)(C)c1cc(C=NCCCCNc2c3c(nc4ccccc24)CCCC3)cc(C(C)(C)C)c1O [14b, 2,6-Di-tert-butyl-4-{[4-(1,2,3,4-tetrahydro-acridin-9-ylamino)-butylimino]-methyl}-phenol] | 17.6 ± 1.4 *^,§ % | 19700 ± 900 nM | 1.0 and 1.00 ± 0.05 | 26.6 ± 2.2% | – | 424 ± 22 | 385 ± 31 | – | – | – | – |
| CC(C)(C)c1cc(C=NCCCCCCNc2c3c(nc4ccccc24)CCC3)cc(C(C)(C)C)c1O [13c, 2,6-Di-tert-butyl-4-{[6-(2,3-dihydro-1H-cyclopenta[b]quinolin-9-ylamino)-hexylimino]-methyl}-phenol] | 16.5 ± 1.3% | 19400 ± 900 nM | 0.98 ± 0.04 | 31.3 ± 2.1% | 0.59 ± 0.01 | 210 ± 10 | 172 ± 17 | – | – | – | – |
| CC(C)(C)c1cc(CNCCNc2c3c(nc4ccccc24)CCCC3)cc(C(C)(C)C)c1O [17a, 2,6-Di-tert-butyl-4-{[2-(1,2,3,4-tetrahydro-acridin-9-ylamino)-ethylamino]-methyl}-phenol] | 13.4 ± 1.1% | 16700 ± 800 nM | 1.20 ± 0.05 | 18.4 ± 1.1% | 0.52 ± 0.02 | 2880 ± 190 | 464 ± 41 | – | – | – | – |
| Cc1c(C)c2c(c(C)c1O)CCC(C)(C(=O)O)O2 (stereo not shown) [Trolox, 6-hydroxy-2,5,7,8-tetramethylchroman-2-carboxylic acid, reference compound] | – | 20000 nM and 20100 nM | 1.0 | – | 1.0 | – | – | – | – | – | – |
| CC(C)(C)c1cc(C=NCCCCCCNc2c3c(nc4ccccc24)CCCC3)cc(C(C)(C)C)c1O [14c, 2,6-Di-tert-butyl-4-{[6-(1,2,3,4-tetrahydro-acridin-9-ylamino)-hexylimino]-methyl}-phenol] | 19.7 ± 1.5 **^,§ % | 18600 ± 900 nM | 1.10 ± 0.05 | 25.1 ± 1.9% | 0.71 ± 0.02 | 71.2 ± 1.2 | 55 ± 5 | – | 62.4 ± 4.9 | – | – |
| O=c1c(O)c(-c2cc(O)c(O)c(O)c2)oc2cc(O)cc(O)c12 [Myricetin, reference compound] | – | – | – | – | – | – | – | – | – | 73.2 ± 5.8 | – |
| CC(C)(C)c1cc(CNCCCCCCNc2c3c(nc4ccccc24)CCC3)cc(C(C)(C)C)c1O [16c, 2,6-Di-tert-butyl-4-{[6-(2,3-dihydro-1H-cyclopenta[b]quinolin-9-ylamino)-hexylamino]-methyl}-phenol] | 15.8 ± 1.4% | 13400 ± 700 nM | – | 18.7 ± 0.7% | 0.51 ± 0.02 | 205 ± 12 | 48.8 ± 0.5 | – | – | – | less than 1 min |
| CC(C)(C)c1cc(C=NCCCCNc2c3c(nc4ccccc24)CCC3)cc(C(C)(C)C)c1O [13b, 2,6-Di-tert-butyl-4-{[4-(2,3-dihydro-1H-cyclopenta[b]quinolin-9-ylamino)-butylimino]-methyl}-phenol] | 20.0 ± 1.6 ***^,§ % | 25400 ± 1600 nM | 0.78 ± 0.04 | 32.7 ± 1.9% | 0.60 ± 0.02 | 1300 ± 70 | 351 ± 1 | – | – | – | – |
| CC(C)(C)c1cc(CNCCCCNc2c3c(nc4ccccc24)CCCC3)cc(C(C)(C)C)c1O [17b, 2,6-Di-tert-butyl-4-{[4-(1,2,3,4-tetrahydro-acridin-9-ylamino)-butylamino]-methyl}-phenol] | 15.4 ± 1.3% | 14300 ± 600 nM | – | 15.8 ± 1.4% | – | 279 ± 22 | 111 ± 9 | – | – | – | less than 1 min |
| CC(C)(C)c1cc(C=NCCCCNc2c3c(nc4ccccc24)CCCCC3)cc(C(C)(C)C)c1O [15b, 2,6-Di-tert-butyl-4-{[4-(7,8,9,10-tetrahydro-6H-cyclohepta[b]quinolin-11-ylamino)-butylimino]-methyl}-phenol] | 18.4 ± 1.4 **^,§ % | 22500 ± 1400 nM | 0.89 ± 0.04 | 26.3 ± 0.4% | 0.46 ± 0.01 | 524 ± 20 | 131 ± 4 | – | – | – | – |
| bis-4-nitrophenyl phosphate [BNPP, reference compound] | – | – | – | 99.1 ± 0.9% ^b | – | – | – | – | – | – | – |
| Nc1c2c(nc3ccccc13)CCCC2 [Tacrine, reference compound] | – | – | – | – | – | – | – | minimal inhibition | – | – | – |
| CC(C)(C)c1cc(CNCCCCNc2c3c(nc4ccccc24)CCCCC3)cc(C(C)(C)C)c1O [18b, 2,6-Di-tert-butyl-4-{[4-(7,8,9,10-tetrahydro-6H-cyclohepta[b]quinolin-11-ylamino)-butylamino]-methyl}-phenol] | 15.7 ± 1.2% | 14600 ± 500 nM | – | 21.4 ± 1.8% | 0.38 ± 0.01 | 436 ± 16 | 67.8 ± 6.1 | – | – | – | less than 1 min |
